Experimental data taken from ChEMBL document CHEMBL5335793, “PITB: A high affinity transthyretin aggregation inhibitor with optimal pharmacokinetic properties” (Eur J Med Chem, 2023).
Each block holds one compound with its values, some of them ahead of it.

Legend:
[1] = Drug metabolism in CD-1 mouse assessed as 3-O-methylM23 formation by measuring Cmax at 1 mg/kg, iv measured for 24 hrs by UPLC-MS/MS analysis; type: ADME, organism-based; parameters: dose 1 mg/kg, time 24 hrs, route iv; details: in vivo
[2] = Half life in CD-1 mouse at 1 mg/kg, iv measured for 24 hrs by UPLC-MS/MS analysis; type: ADME, organism-based; details: in vivo
[3] = AUC (0 to 24 hrs) in CD-1 mouse at 1 mg/kg, iv by UPLC-MS/MS analysis; type: ADME, organism-based; parameters: time 24 hrs, dose 1 mg/kg, route iv; details: in vivo
[4] = Cmax in CD-1 mouse at 1 mg/kg, iv measured for 24 hrs by UPLC-MS/MS analysis; type: ADME, organism-based; parameters: dose 1 mg/kg, time 24 hrs, route iv; details: in vivo
[5] = Drug metabolism in CD-1 mouse assessed as 3-O-methylM23 formation by measuring AUC (0 to 24 hrs) at 1 mg/kg, iv by UPLC-MS/MS analysis; type: ADME, organism-based; parameters: time 24 hrs, dose 1 mg/kg, route iv; details: in vivo
[6] = Drug metabolism in CD-1 mouse assessed as 3-O-methylM23 formation by measuring half life at 1 mg/kg, iv measured for 24 hrs by UPLC-MS/MS analysis; type: ADME, organism-based; details: in vivo
[7] = Tmax in CD-1 mouse at 10 mg/kg, po measured for 24 hrs by UPLC-MS/MS analysis; type: ADME, organism-based; details: in vivo
[8] = Cmax in CD-1 mouse at 10 mg/kg, po measured for 24 hrs by UPLC-MS/MS analysis; type: ADME, organism-based; parameters: dose 10 mg/kg, time 24 hrs, route po; details: in vivo
[9] = AUC (0 to 24 hrs) in CD-1 mouse at 10 mg/kg, po measured for 24 hrs by UPLC-MS/MS analysis; type: ADME, organism-based; parameters: time 24 hrs, dose 10 mg/kg, route po; details: in vivo
[10] = Half life in CD-1 mouse at 10 mg/kg, po measured for 24 hrs by UPLC-MS/MS analysis; type: ADME, organism-based; details: in vivo
[11] = Drug metabolism in CD-1 mouse assessed as 3-O-methylM23 formation by measuring Tmax at 10 mg/kg, po measured for 24 hrs by UPLC-MS/MS analysis; type: ADME, organism-based; details: in vivo
[12] = Drug metabolism in CD-1 mouse assessed as 3-O-methylM23 formation by measuring Cmax at 10 mg/kg, po measured for 24 hrs by UPLC-MS/MS analysis; type: ADME, organism-based; parameters: time 24 hrs, dose 10 mg/kg, route po; details: in vivo
[13] = Drug metabolism in CD-1 mouse assessed as 3-O-methylM23 formation by measuring AUC (0 to 24 hrs) at 10 mg/kg, po by UPLC-MS/MS analysis; type: ADME, organism-based; parameters: time 24 hrs, dose 10 mg/kg, route po; details: in vivo
[14] = Drug metabolism in CD-1 mouse assessed as 3-O-methylM23 formation by measuring half life at 10 mg/kg, po measured for 24 hrs by UPLC-MS/MS analysis; type: ADME, organism-based; details: in vivo
Transthyretin [15] = target: T1, Transthyretin (Homo sapiens, UniProt P02766); test: Binding affinity to wild-type TTR (unknown origin) expressed in Escherichia coli BL21(DE3) assessed as change in enthalpy at 100 uM by ITC analysis
Transthyretin [16] = target: T1, Transthyretin; test: Binding affinity to wild-type TTR (unknown origin) expressed in Escherichia coli BL21(DE3) assessed as change in entropy at 100 uM by ITC analysis
[17] = tested on: Transthyretin (Homo sapiens), P02766 [V50M]; test: Binding affinity to TTR V30M mutant (unknown origin) expressed in Escherichia coli BL21(DE3) assessed as change in enthalpy at 100 uM by ITC analysis
[18] = tested on: Transthyretin (Homo sapiens), P02766 [V50M]; test: Binding affinity to TTR V30M mutant (unknown origin) expressed in Escherichia coli BL21(DE3) assessed as change in entropy at 100 uM by ITC analysis
[19] = tested on: Transthyretin (Homo sapiens), P02766 [V142I]; test: Binding affinity to TTR V122I mutant (unknown origin) expressed in Escherichia coli BL21(DE3) assessed as change in enthalpy at 100 uM by ITC analysis
[20] = tested on: Transthyretin (Homo sapiens), P02766 [V142I]; test: Binding affinity to TTR V122I mutant (unknown origin) expressed in Escherichia coli BL21(DE3) assessed as change in entropy at 100 uM by ITC analysis
[21] = tested on: Transthyretin (Homo sapiens), P02766 [V50M]; test: Stabilization of TTR V30M mutant in human plasma assessed as degree of tetramer stability at 19.1 uM incubated overnight followed by urea addition measured after 5 hrs by isoelectric focusing based densitometry relative to control; type: cell-free
[22] = Elimination rate constant in CD-1 mouse at 10 mg/kg, po measured for 24 hrs by UPLC-MS/MS analysis; type: ADME, organism-based; details: in vivo
[23] = Volume of distribution in CD-1 mouse at 10 mg/kg, po measured for 24 hrs by UPLC-MS/MS analysis; type: ADME, organism-based; details: in vivo
[24] = Clearance in CD-1 mouse at 10 mg/kg, po measured for 24 hrs by UPLC-MS/MS analysis; type: ADME, organism-based; details: in vivo

Cmax [1]: 555.3 ng/mL | half-life [2]: 1.5 h | AUC(0-t) at 24 h [3]: 761 ng·h/mL | Cmax [4]: 1360 ng/mL | AUC [5]: 462.1 ng·h/mL | t1/2 [6]: 2.7 h | Tmax [7]: < 0.25 h | Cmax [8]: 744 ng/mL | AUC(0-t) at 24 h [9]: 866 ng·h/mL | half-life [10]: 0.9 h | Tmax [11]: < 0.25 h | Cmax [12]: 96.7 ng/mL | AUC [13]: 209.1 ng·h/mL | t1/2 [14]: 2.8 h
Compound: O=C(c1cc(O)cc(F)c1)c1cc(O)c(O)c([N+](=O)[O-])c1

deltaH (Transthyretin [15]): -13.6 kcal/mol | -TdeltaS (Transthyretin [16]): 3.6 kcal/mol | deltaH [17]: -13.8 kcal/mol | -TdeltaS [18]: 5.1 kcal/mol | deltaH [19]: -12.2 kcal/mol | -TdeltaS [20]: 2.2 kcal/mol | Activity [21]: 4.9% | Tmax [7]: < 0.25 h | Cmax [8]: 7620 ng/mL | AUC(0-t) at 24 h [9]: 11900 ng·h/mL | half-life [10]: 1.4 h | k el at 24 h [22]: 0.000139 s⁻¹ | Vd [23]: 1.6 L/kg | CL/F [24]: 13.3 mL/min/kg
Compound: Cc1ccc(C(=O)c2cc(O)c(O)c([N+](=O)[O-])c2)cc1 [TOLCAPONE]
